Test results taken from ChEMBL document CHEMBL3885861, “Open TG-GATES”.

Organism: Rattus norvegicus
Experiment: Open TG-GATES - Regimen: Single
Type: toxicity, organism-based, Sprague-Dawley
Design: regimen Single, gender Male, age 6 weeks
Conditions: in vivo, po, 50 mg/kg, route gavage, dose level High; for ALT / AST / BUN / CRE / Ca / Cl / DBIL / GLC / IP / K / LDH / Na / PL / RALB / TBIL / TC / TG / TP / gamma-GTP / A/G / ALP: tissue Plasma; for APTT / Bas / Eos / Fbg / Hb / Ht / Lym / MCH / MCHC / MCV / Mono / Neu / PT / Plat / RBC / Ret / WBC: tissue Blood; for KIDNEY_L / KIDNEY_R / KIDNEY_TOTAL: tissue Kidney; for LIVER: tissue Liver

COc1ccc2c(c1)c(CC(=O)O)c(C)n2C(=O)c1ccc(Cl)cc1 [INDOMETHACIN]
ALT (3 h): 41.2 IU/L | AST (3 h): 75 IU/L | BUN (3 h): 11.4 mg/dL | CRE (3 h): 0.4 mg/dL | Ca (3 h): 10.4 mg/dL | Cl (3 h): 102 meq/L | DBIL (3 h): 0.072 mg/dL | GLC (3 h): 217.4 mg/dL | IP (3 h): 10.5 mg/dL | K (3 h): 3.9 meq/L | LDH (3 h): 221 IU/L | Na (3 h): 140.4 meq/L | PL (3 h): 125.4 mg/dL | RALB (3 h): 3.3 g/dL | TBIL (3 h): 0.1 mg/dL | TC (3 h): 69.6 mg/dL | TG (3 h): 43.4 mg/dL | TP (3 h): 5.4 g/dL | gamma-GTP (3 h): 1 IU/L | TERMINAL_BW (6 h): 223.2 g | APTT (6 h): 18.3 s | Bas (6 h): 0% | Eos (6 h): 0.4% | Fbg (6 h): 214.4 mg/dL | Hb (6 h): 13.7 g/dL | Ht (6 h): 37.2% | Lym (6 h): 64% | MCH (6 h): 22.4 pg | MCHC (6 h): 36.9% | MCV (6 h): 60.8 fL | Mono (6 h): 4.6% | Neu (6 h): 28.6% | PT (6 h): 12.3 s | Plat (6 h): 113.8 x10_4/uL | RBC (6 h): 612.2 x10_4/ul | Ret (6 h): 8% | WBC (6 h): 123.9 x10_2/uL | KIDNEY_L (6 h): 0.9 g | KIDNEY_R (6 h): 0.9 g | KIDNEY_TOTAL (6 h): 1.9 g | LIVER (6 h): 9.5 g | A/G (6 h): 1.7 | ALP (6 h): 705.2 IU/L | ALT (6 h): 35.4 IU/L | AST (6 h): 73 IU/L | BUN (6 h): 12.8 mg/dL | CRE (6 h): 0.4 mg/dL | Ca (6 h): 10.6 mg/dL | Cl (6 h): 102.6 meq/L | DBIL (6 h): 0.08 mg/dL | GLC (6 h): 194.2 mg/dL | IP (6 h): 9.4 mg/dL | K (6 h): 4.1 meq/L | LDH (6 h): 211.2 IU/L | Na (6 h): 140.4 meq/L | PL (6 h): 120.6 mg/dL | RALB (6 h): 3.3 g/dL | TBIL (6 h): 0.1 mg/dL | TC (6 h): 64.8 mg/dL | TG (6 h): 60.2 mg/dL | TP (6 h): 5.3 g/dL | gamma-GTP (6 h): 1 IU/L | TERMINAL_BW (9 h): 222.5 g | APTT (9 h): 19 s | Bas (9 h): 0% | Eos (9 h): 0.2% | Fbg (9 h): 215.2 mg/dL | Hb (9 h): 13.7 g/dL | Ht (9 h): 36.9% | Lym (9 h): 68.4% | MCH (9 h): 22.5 pg | MCHC (9 h): 37.2% | MCV (9 h): 60.4 fL | Mono (9 h): 3.8% | Neu (9 h): 24.8% | PT (9 h): 12.2 s | Plat (9 h): 113.6 x10_4/uL | RBC (9 h): 610.6 x10_4/ul | Ret (9 h): 8% | WBC (9 h): 107.9 x10_2/uL | KIDNEY_L (9 h): 1 g | KIDNEY_R (9 h): 1 g | KIDNEY_TOTAL (9 h): 1.9 g | LIVER (9 h): 9 g | A/G (9 h): 1.7 | ALP (9 h): 738.8 IU/L | ALT (9 h): 30.4 IU/L | AST (9 h): 68.4 IU/L | BUN (9 h): 12.8 mg/dL | CRE (9 h): 0.4 mg/dL | Ca (9 h): 10.3 mg/dL | Cl (9 h): 103.8 meq/L | DBIL (9 h): 0.072 mg/dL | GLC (9 h): 200.8 mg/dL | IP (9 h): 9.9 mg/dL | K (9 h): 4.1 meq/L | LDH (9 h): 199 IU/L | Na (9 h): 140.6 meq/L | PL (9 h): 126.6 mg/dL | RALB (9 h): 3.3 g/dL | TBIL (9 h): 0.1 mg/dL | TC (9 h): 69.2 mg/dL | TG (9 h): 40.8 mg/dL | TP (9 h): 5.2 g/dL | gamma-GTP (9 h): 1.2 IU/L | TERMINAL_BW (24 h): 230 g | APTT (24 h): 21.7 s | Bas (24 h): 0% | Eos (24 h): 0% | Fbg (24 h): 260.8 mg/dL | Hb (24 h): 9.5 g/dL | Ht (24 h): 27% | Lym (24 h): 61.4% | MCH (24 h): 21.3 pg | MCHC (24 h): 35.1% | MCV (24 h): 60.6 fL | Mono (24 h): 2.8% | Neu (24 h): 33.4% | PT (24 h): 12.7 s | Plat (24 h): 67.9 x10_4/uL | RBC (24 h): 448.8 x10_4/ul | Ret (24 h): 8.4% | WBC (24 h): 122.6 x10_2/uL | KIDNEY_L (24 h): 1 g | KIDNEY_R (24 h): 1 g | KIDNEY_TOTAL (24 h): 2 g | LIVER (24 h): 10.4 g | A/G (24 h): 1.2 | ALP (24 h): 484.2 IU/L | ALT (24 h): 25.2 IU/L | AST (24 h): 48 IU/L | BUN (24 h): 21.6 mg/dL | CRE (24 h): 0.4 mg/dL | Ca (24 h): 9.4 mg/dL | Cl (24 h): 106.2 meq/L | DBIL (24 h): 0.056 mg/dL | GLC (24 h): 167.8 mg/dL | IP (24 h): 8.6 mg/dL | K (24 h): 4.2 meq/L | LDH (24 h): 145.2 IU/L | Na (24 h): 141.2 meq/L | PL (24 h): 114 mg/dL | RALB (24 h): 1.9 g/dL | TBIL (24 h): 0.096 mg/dL | TC (24 h): 60.4 mg/dL | TG (24 h): 122.8 mg/dL | TP (24 h): 3.5 g/dL | gamma-GTP (24 h): 1 IU/L
